# Source: patent US5532229A, “Topical administration of vitamin D to mammals” (priority 1994, dated 1996)
# Columns and labels:
# [1] = Experiment 2: serum 25(OH)D3 after 3 wk vitamin D3 supplement; assay type: in vivo, Male Wistar rats; settings: 8 μg/day, relative to marginal-diet group
# Procedure: After 30 days, the rats were divided into three groups of 6: one group continued with no supplement, one group was given daily vitamin D3 supplement, 8 μg/day either by gastric tube, the third received the supplement by application to the skin in 50 μL ethanol. Vitamin D3 was given for 3 wk. The day before the rats were killed, the vitamin D3 dose was supplemented with [^14 C]-labelled vitamin D3, 915,000 cpm per rat. Blood was obtained from the tail of each rat at 3 h, 9 h, and by heart puncture when the rats were anesthetized for killing, 24 h after giving the tracer. The blood was extracted and chromatographed to distinguish [^14 C]-vitamin D3 from the [^14 C]-25(OH)D3generated from it. Radioactivity was also measured in the liver, kidney, and adipose tissue. Serum nonradioactive 25(OH)D3 was also measured.
# (§1) Biochemical measurements. 1,25(OH)2 D3 in serum was measured by calf-thymus receptor-binding assay after initial purification of 1,25(OH)2 D3 with C18-OH cartridges (5). For the serum volumes that were minimal, serum was measured out in 50 μL increments, and the final result was adjusted for the volume of sample analyzed. […] The material eluting as 1,25(OH)2 D3 was evaporated and redissolved in acetonitrile: water for further purification with C18-OH cartridges and quantitation by thymus receptor assay, as described for serum. […]
# [2] = Experiment 3: serum 25(OH)D3 after 6 weeks of vitamin D3 nutrition; assay type: in vivo, Male Wistar rats
# Procedure: Male, Wistar rats were obtained at 120-130 g, and placed on a 0.01% calcium, 0.7% phosphate diet that was vitamin D deficient (Teklad Test Diets, Madison, WI) this was for one week to help deplete vitamin D stores. For the next three weeks the rats were fed the vitamin D-deficient diet, but with normal, 0.5%, calcium. Starting with these 3 weeks, the rats were divided into four vitamin D3 -treatment groups, initially, nine rats per group: group a) supplemented once weekly with 0.6 μg vitamin D3 (average dose, 0.08 μg/day); group b) supplemented once every second day with vitamin D3 to provide 2 nmol/day, i.e., each dose was 4 nmol of vitamin D3; group c) supplemented once every second day with vitamin D3 to provide 8 μg/day. The preceding groups all received the vitamin D3 through an infant-feeding tube inserted through the mouth into the stomach. One group, d), received its vitamin D3 in the ethanol applied onto a shaved 2 cm×2 cm patch of skin on the back, this was done every second day to provide vitamin D3 at 8 μg/day. The volume of each dose of vitamin D3 given was adjusted so that the stated doses are per 250 g body weight. […]
# as §1, with “serum. Renal 24-hydroxylase was measured by incubating mitochondria with [^3 H]-25(OH)D3 as substrate (Vieth and Fraser, J Biol Chem. 254:12455-12460;1979).” for “serum.”
# 1α-hydroxylase = assay: Experiment 3: 1-hydroxylase in renal mitochondria; assay type: in vivo, rat; settings: for Renal mitochondria 1a-hydroxylase: 6 weeks
# Procedure: (§2) Male, Wistar rats were obtained at 120-130 g, and placed on a 0.01% calcium, 0.7% phosphate diet that was vitamin D deficient (Teklad Test Diets, Madison, WI) this was for one week to help deplete vitamin D stores. For the next three weeks the rats were fed the vitamin D-deficient diet, but with normal, 0.5%, calcium. Starting with these 3 weeks, the rats were divided into four vitamin D3 -treatment groups, initially, nine rats per group: group a) supplemented once weekly with 0.6 μg vitamin D3 (average dose, 0.08 μg/day); group b) supplemented once every second day with vitamin D3 to provide 2 nmol/day, i.e., each dose was 4 nmol of vitamin D3; group c) supplemented once every second day with vitamin D3 to provide 8 μg/day. The preceding groups all received the vitamin D3 through an infant-feeding tube inserted through the mouth into the stomach. One group, d), received its vitamin D3 in the ethanol applied onto a shaved 2 cm×2 cm patch of skin on the back, this was done every second day to provide vitamin D3 at 8 μg/day. The volume of each dose of vitamin D3 given was adjusted so that the stated doses are per 250 g body weight. Over a second 3-week period while maintaining the described vitamin D3 dosing regimens, diet calcium content was changed weekly and blood sampling was started (that is, changes in calcium and sampling was from weeks 4 to 6, inclusive, of receiving the appropriate vitamin D3 supplement). Diet calcium was first dropped to 0.01% then raised to 1.5% and finally dropped again to 0.01%. For each week of dietary calcium manipulation, blood was obtained at day zero (the day of but just prior to the change in calcium), and days 1, 3, and 7 after the change. During the first week, 0.5 mL of blood was taken on the first two of these days and anticoagulated with heparin, the cells were isolated and resuspended in normal rat plasma and reinjected into the femoral vein. […] For the subsequent samplings, only 0.2-0.3 mL of blood was taken by bleeding from the tail into precalibrated microcentrifuge tubes. In this way, the bleeds prior to sacrifice removed a net total of less than 2 mL of blood, that is, less than or equal to 10% of the blood volume. Samples of daytime urine was collected into microfuge tubes that were fastened to the cones of metabolic collection funnels designed to hang under the wire cages. The cages and cones were rinsed with 0.1 mol/L hydrochloric acid prior to each collection. To eliminate contamination of the urine with diet, stool or water, the rats were placed into these separate cages only during the urine-collection period, until about 1 mL urine was present in the microfuge tube, this was typically within 5 min to one hour.
# (§3) Biochemical measurements. 1,25(OH)2 D3 in serum was measured by calf-thymus receptor-binding assay after initial purification of 1,25(OH)2 D3 with C18-OH cartridges (5). For the serum volumes that were minimal, serum was measured out in 50 μL increments, and the final result was adjusted for the volume of sample analyzed. To measure 1α-hydroxylase in renal mitochondria, the incubation was as described previously, except the substrate was 20 μmol/L nonradioactive 25(OH)D3. The assay was stopped by addition of 2.5 mL methanol. To monitor recovery of 1,25 (OH)2 D3, 2000 cpm of [^3 H]--1,25(OH)2 D3 were added in 50 μL ethanol prior to further extraction with two additions of 1.25 mL methylene chloride. The methylene chloride layer was taken and evaporated to dryness, redissolved in hexane, isopropanol, methanol (90:9: 1) for purification by HPLC, Zorbax-Sil column. The material eluting as 1,25(OH)2 D3 was evaporated and redissolved in acetonitrile: water for further purification with C18-OH cartridges and quantitation by thymus receptor assay, as described for serum. Renal 24-hydroxylase was measured by incubating mitochondria with [^3 H]-25(OH)D3 as substrate (Vieth and Fraser, J Biol Chem. 254:12455-12460;1979). […]
# 24-hydroxylase = assay: Experiment 3: 24-hydroxylase in renal mitochondria; assay type: in vivo, rat; settings: for Renal mitochondria 24-hydroxylase: 6 weeks
# Procedure: as §2, §3
# [3] = 8 μg/day, gastric and dermal, vs groups with less vitamin D3
structure (smiles),measurement,setting,value
C=C1CC[C@H](O)C/C1=C/C=C1\CCC[C@]2(C)[C@@H]([C@H](C)CCCC(C)C)CC[C@@H]12 [vitamin D3],increase in 25(OH)D3 with dermal relative to gastric supplementation,[1],59%
same,effectiveness of dermal vs oral route in raising 25(OH)D3,[2]; 20 nmol/250 g/day,85%
same,serum 25(OH)D3,[2]; dermal 8 μg/day,127 ± 4 nmol/L
same,serum 25(OH)D3,[2]; gastric 8 μg/day,148 ± 10 nmol/L
same,difference between the two routes in activities of renal enzymes (1-hydroxylase),1α-hydroxylase; 20 nmol/250 g/day,no significant difference between the two routes
same,Renal mitochondria 1a-hydroxylase,1α-hydroxylase; 0.08 μg/day diet,1052 fmol/mg/mi
same,Renal mitochondria 1a-hydroxylase,1α-hydroxylase; 0.8 μg/day G1 (gastric),993 fmol/mg/mi
same,Renal mitochondria 1a-hydroxylase,1α-hydroxylase; 8 μg/day G1 (gastric),539 fmol/mg/mi
same,Renal mitochondria 1a-hydroxylase,1α-hydroxylase; 8 μg/day dermal,630 fmol/mg/mi
same,1-hydroxylase in kidney,1α-hydroxylase; [3],suppressed 1-hydroxylase in kidney
same,difference between the two routes in activities of renal enzymes (24-hydroxylase),24-hydroxylase; 20 nmol/250 g/day,no significant difference between the two routes
same,Renal mitochondria 24-hydroxylase,24-hydroxylase; 0.08 μg/day diet,1.34 pmol/mg/mi
same,Renal mitochondria 24-hydroxylase,24-hydroxylase; 0.8 μg/day G1 (gastric),3.67 pmol/mg/mi
same,Renal mitochondria 24-hydroxylase,24-hydroxylase; 8 μg/day G1 (gastric),8.88 pmol/mg/mi
same,Renal mitochondria 24-hydroxylase,24-hydroxylase; 8 μg/day dermal,6.26 pmol/mg/mi
same,24-hydroxylase in kidney,24-hydroxylase; [3],increased 24-hydroxylase in kidney
